One may read the pIC50 as the IC50 on a negative log10 scale, so that one unit is a factor of ten. Lower therefore signals a high IC50.

The structures appear in SMILES notation. pIC50: −log10 of the molar value.

The target in this experiment is human TLR7 (Homo sapiens (Human), UniProt Q9NYK1). Description: Test for evaluating the inhibition of the activation of human TLR7 (SEAP reporter, TLR7/NF-κB/SEAPorter HEK293 cell). It counts as cell-based. To be noted: R-848 200 nmol/L; for inhibitory effect against TLR7 in the test for evaluating inhibition of the activation of TLR7: SEAP activity, result in words; for pIC50: SEAP reporter. As to the method:
As human TLR7 expressing cell line, HEK293 cell line was bought from IMGENEX Corporation (TLR7/NF-ηB/SEAPorter™ HEK293 cell), which is human embryonic kidney cell line and stably expresses full-length human TLR7 gene and secreted alkaline phosphatase (SEAP) reporter gene under the transcriptional control of an NE-ηB response element. The TLR7/NF-ηB/SEAPorter™ HEK293 cell was cultivated with DMEM containing 10% fetal bovine serum (FBS) and 10 μg/mL blasticidin S at 37° C. in the presence of 5% CO2. The TLR7/NF-ηB/SEAPorter™ HEK293 cell was seeded into 96-well microtiter plate at 5×10^4 cell/90 μL/well, and the place was cultivated at 37° C. in a CO2 incubator overnight.
Each compound prepared in the Examples was evaluated by Test 1.

human TLR7, sequence (Q9NYK1 27-1049): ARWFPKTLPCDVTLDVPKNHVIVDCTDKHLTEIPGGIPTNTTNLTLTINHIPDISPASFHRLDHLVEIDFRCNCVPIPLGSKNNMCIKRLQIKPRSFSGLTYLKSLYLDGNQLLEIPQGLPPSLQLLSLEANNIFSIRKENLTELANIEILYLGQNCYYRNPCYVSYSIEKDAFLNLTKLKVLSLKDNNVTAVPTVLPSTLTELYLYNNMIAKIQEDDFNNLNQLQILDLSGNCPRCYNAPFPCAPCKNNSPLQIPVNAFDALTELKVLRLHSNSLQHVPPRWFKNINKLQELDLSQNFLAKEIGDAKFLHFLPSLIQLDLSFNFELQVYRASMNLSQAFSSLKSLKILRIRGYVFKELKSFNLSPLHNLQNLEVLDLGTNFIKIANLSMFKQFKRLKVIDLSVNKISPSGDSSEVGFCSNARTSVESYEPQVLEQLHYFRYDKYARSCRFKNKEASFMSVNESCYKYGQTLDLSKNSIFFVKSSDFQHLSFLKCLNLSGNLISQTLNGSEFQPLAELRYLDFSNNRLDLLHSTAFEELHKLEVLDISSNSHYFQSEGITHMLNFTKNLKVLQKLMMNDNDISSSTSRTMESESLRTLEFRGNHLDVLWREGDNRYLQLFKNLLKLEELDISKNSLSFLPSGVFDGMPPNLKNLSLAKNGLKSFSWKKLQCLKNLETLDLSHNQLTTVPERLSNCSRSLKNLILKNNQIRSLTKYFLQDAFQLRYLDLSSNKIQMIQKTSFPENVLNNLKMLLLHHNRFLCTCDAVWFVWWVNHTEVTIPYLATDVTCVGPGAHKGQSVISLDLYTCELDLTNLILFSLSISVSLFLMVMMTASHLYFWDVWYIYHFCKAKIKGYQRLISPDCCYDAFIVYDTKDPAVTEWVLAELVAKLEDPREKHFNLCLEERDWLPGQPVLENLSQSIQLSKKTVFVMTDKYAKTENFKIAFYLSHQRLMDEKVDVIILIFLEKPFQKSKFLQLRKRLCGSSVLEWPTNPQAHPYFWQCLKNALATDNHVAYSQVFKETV

Turning to `CCOc1nc(N)c2nc(-c3cncc(F)c3)n(Cc3ccc(OCCN4CCCC4)cc3)c2n1` [Example 47, 2-Ethoxy-8-(5-fluoropyridin-3-yl)-9-{4-[2-(pyrrolidin-1-yl)ethoxy]benzyl}-9H-purine-6-amine], the “inhibitory effect against TLR7 in the test for evaluating inhibition of the activation of TLR7” value (shortened to “inhibitory effect against TLR7”) was “potent inhibitory effect against TLR7” and the pIC50 was 7.52.

As to `CCOc1nc(N)c2nc(-c3cncc(F)c3)n(Cc3cccc(OCCN4CCCC4)c3)c2n1` [Example 51], the “inhibitory effect against TLR7” value is recorded as “potent inhibitory effect against TLR7” and the pIC50 was 7.23. `CCOc1nc(N)c2nc(-c3cncc(F)c3)n(Cc3ccc(OCCN(C)C)cn3)c2n1` [Example 56] showed a pIC50 of 6.18. Molecule `CCOc1nc(N)c2nc(-c3cncc(F)c3)n(Cc3ccc(OC4CCN(C)CC4)nc3)c2n1` [Example 60] had a pIC50 of 6.64.

The molecule `CCOc1nc(N)c2nc(-c3cncc(F)c3)n(Cc3ccc(N(C)CCN(C)C)nc3)c2n1` [Example 64, N-(5-{[6-Amino-2-ethoxy-8-(5-fluoropyridin-3-yl)-9H-purin-9-yl]methyl}pyridin-2-yl)-N,N′,N′-trimethylethane-1,2-diamine] showed a pIC50 of 6.17. Take `CCOc1nc(N)c2nc(-c3cncc(F)c3)n(Cc3ccc(N4CCN(C)CC4)nc3)c2n1` [Example 65]: the pIC50 is 6.26. In the case of `CCOc1nc(N)c2nc(-c3cncc(F)c3)n(Cc3ccc(O[C@@H]4CN5CCC4CC5)cc3)c2n1` [Example 66, 9-{4-[(3S)-1-Azabicyclo[2.2.2]oct-3-yloxy]benzyl}-2-ethoxy-8-(5-fluoropyridin-3-yl)-9H-purine-6-amine], the “inhibitory effect against TLR7” value is recorded as “potent inhibitory effect against TLR7” and the pIC50 is 7.68.

Turning to `CCOc1nc(N)c2nc(-c3cncc(F)c3)n(Cc3ccc(O[C@H]4CN5CCC4CC5)cc3)c2n1` [Example 67], the “inhibitory effect against TLR7” value was “potent inhibitory effect against TLR7” and the pIC50 is 7.29. Regarding `CCOc1nc(N)c2nc(-c3cncc(F)c3)n(Cc3ccc(N4CCN(C)CC4)cc3)c2n1` [Example 68, 2-Ethoxy-8-(5-fluoropyridin-3-yl)-9-[4-(4-methylpiperazin-1-yl)benzyl]-9H-purine-6-amine], the pIC50 was 6.74. For `COc1nc(C)c2nc(-c3cncc(F)c3)n(Cc3ccc(O[C@@H]4CN5CCC4CC5)nc3)c2n1` [Example 69, 9-({6-[(3S)-1-azabicyclo[2.2.2]oct-3-yloxy]pyridin-3-yl}methyl)-8-(5-fluoropyridin-3-yl)-2-methoxy-6-methyl-9H-purine], the “inhibitory effect against TLR7” value is reported as “potent inhibitory effect against TLR7” and the pIC50 is 6.89. Turning to `COc1nc(C)c2nc(-c3cncc(F)c3)n(Cc3ccc(O[C@H]4CN5CCC4CC5)nc3)c2n1` [Example 70], the “inhibitory effect against TLR7” value is listed as “potent inhibitory effect against TLR7” and the pIC50 is 6.96.

Regarding `CCOc1nc(C)c2nc(-c3cncc(F)c3)n(Cc3ccc(O[C@@H]4CN5CCC4CC5)nc3)c2n1` [Example 71, 9-({6-[(3S)-1-azabicyclo[2.2.2]oct-3-yloxy]pyridin-3-yl}methyl)-2-ethoxy-8-(5-fluoropyridin-3-yl)-6-methyl-9H-purine], the “inhibitory effect against TLR7” value was “potent inhibitory effect against TLR7” and the pIC50 is 7.24.

Consider `CCOc1nc(C)c2nc(-c3cncc(F)c3)n(Cc3ccc(O[C@H]4CN5CCC4CC5)nc3)c2n1` [Example 72], for which the “inhibitory effect against TLR7” value is listed as “potent inhibitory effect against TLR7” and the pIC50 is 7.09. For the molecule `CCOc1nc(C)c2nc(-c3cncc(F)c3)n(Cc3ccc(OCC4CN5CCC4CC5)nc3)c2n1` (stereo not drawn) [Example 73], the pIC50 is 6.80.

`CCCOc1nc(C)c2nc(-c3cncc(F)c3)n(Cc3ccc(O[C@@H]4CN5CCC4CC5)nc3)c2n1` [Example 75] had a pIC50 of 6.70. `CCCOc1nc(C)c2nc(-c3cncc(C)c3)n(Cc3ccc(O[C@@H]4CN5CCC4CC5)nc3)c2n1` [Example 76] showed a pIC50 of 6.40. In turn, `CCOc1nc(N)c2nc(-c3cncc(F)c3)n(Cc3ccc(CO)cc3)c2n1` [Example 77, (4-{[6-Amino-2-ethoxy-8-(5-fluoropyridin-3-yl)-9H-purin-9-yl]methyl}phenyl)methanol] showed a pIC50 of 5.62.

Molecule `CCOc1nc(C)c2nc(-c3cncc(F)c3)n(Cc3ccc(CO)cc3)c2n1` [Example 78] had a pIC50 of 5.89. `CCCCOc1nc(C)c2nc(-c3cncc(F)c3)n(Cc3ccc(CO)cc3)c2n1` [Example 79] showed a pIC50 of 5.46. As for `CCOc1nc(N)c2nc(-c3cncc(F)c3)n(Cc3ccc(CN(C)C)cc3)c2n1` [Example 80, 9-{4-[(Dimethylamino)methyl]benzyl}-2-ethoxy-8-(5-fluoropyridin-3-yl)-9H-purine-6-amine], the pIC50 was 6.27. For `CCOc1nc(N)c2nc(-c3cncc(F)c3)n(Cc3ccc(CN4CCN(C)CC4)cc3)c2n1` [Example 81], the “inhibitory effect against TLR7” value is listed as “potent inhibitory effect against TLR7” and the pIC50 was 7.22.

Turning to `CCCCOc1nc(N)c2nc(-c3cncc(F)c3)n(Cc3ccc(CN(C)C)cc3)c2n1` [Example 82], the pIC50 was 6.40.

Consider `CCCCOc1nc(N)c2nc(-c3cncc(F)c3)n(Cc3ccc(CN4CCOCC4)cc3)c2n1` [Example 83], for which the pIC50 was 5.89. For the molecule `CCCCOc1nc(N)c2nc(-c3cncc(C)c3)n(Cc3cccc(CN(C)C)c3)c2n1` [Example 85], the pIC50 was 6.10. For the molecule `CCCCOc1nc(N)c2nc(-c3cncc(F)c3)n(Cc3cccc(CN4CCOCC4)c3)c2n1` [Example 86], the pIC50 is 6.52. On the same count and under the same terms, in the case of `COCCOc1nc(N)c2nc(-c3cncc(F)c3)n(Cc3ccc(CN(C)C)cc3)c2n1` [Example 87] it was 5.60. `COCCOc1nc(N)c2nc(-c3cncc(F)c3)n(Cc3ccc(CN4CCOCC4)cc3)c2n1` [Example 88] gave a pIC50 of 6.05. `COCCOc1nc(N)c2nc(-c3cncc(F)c3)n(Cc3cccc(CN(C)C)c3)c2n1` [Example 89] gave a pIC50 of 5.85. `COCCOc1nc(N)c2nc(-c3cncc(F)c3)n(Cc3cccc(CN4CCOCC4)c3)c2n1` [Example 90] had a pIC50 of 5.38. `COCCOc1nc(N)c2nc(-c3cncc(F)c3)n(Cc3ccc(CN4CCCCC4)cc3)c2n1` [Example 91] had a pIC50 of 6.60.

As to `COCCOc1nc(N)c2nc(-c3cncc(F)c3)n(Cc3ccc(CN4CCC(F)(F)CC4)cc3)c2n1` [Example 92], the pIC50 was 6.43. Still for that read-out and setting: next, `CCOc1nc(N)c2nc(-c3cncc(F)c3)n(Cc3ccc(CN4CCN(C)C(=O)C4)cc3)c2n1` [Example 93]: 6.54.

`CCOc1nc(N)c2nc(-c3cncc(F)c3)n(Cc3ccc(CN4C[C@@H]5C[C@H]4CN5C)cc3)c2n1` [Example 94]: the “inhibitory effect against TLR7” value is given as “potent inhibitory effect against TLR7” and the pIC50 is 7.70. On the same counts, the results for `CCOc1nc(N)c2nc(-c3cncc(F)c3)n(Cc3ccc(CN4[C@@H]5CC[C@H]4CN(C)C5)cc3)c2n1` [Example 95] are “potent inhibitory effect against TLR7” and 7.30.
